Assay results from paper PMC7076710, “Synthesis, Identification, and Structure–Activity Relationship Analysis of GATA4 and NKX2-5 Protein–Protein Interaction Modulators” (Journal of Medicinal Chemistry, 2019).

Columns and labels:
Type in all cases: cell-based
[1] = molecular target: T1, GATA4 transcriptional activity (Mus musculus, UniProt Q08369); experiment: GATA4 luciferase reporter assay (tandem GATA-site reporter, COS-1 cells); conditions: COS-1, luciferase reporter activity relative to control
T1 construct: expressed in transfected cells; host or cells: COS-1
T1 sequence (Q08369 whole entry): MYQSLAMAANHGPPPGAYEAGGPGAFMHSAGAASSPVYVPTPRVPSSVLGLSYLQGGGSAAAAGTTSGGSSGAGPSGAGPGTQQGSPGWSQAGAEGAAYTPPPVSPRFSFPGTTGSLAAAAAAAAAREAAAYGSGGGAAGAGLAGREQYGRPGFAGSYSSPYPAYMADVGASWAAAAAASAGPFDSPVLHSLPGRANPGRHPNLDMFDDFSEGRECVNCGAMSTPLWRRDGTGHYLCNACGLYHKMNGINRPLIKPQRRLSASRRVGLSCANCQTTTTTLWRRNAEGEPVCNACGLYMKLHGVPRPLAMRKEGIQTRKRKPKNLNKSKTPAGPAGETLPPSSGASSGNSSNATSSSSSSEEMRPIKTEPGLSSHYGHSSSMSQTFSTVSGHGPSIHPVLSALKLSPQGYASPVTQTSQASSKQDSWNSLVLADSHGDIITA
Experimental: (§1) To screen compounds for the GATA4–NKX2-5 interaction, we have developed a luciferase reporter assay based on their property to activate gene transcription synergistically through the NKX2-5 binding site on DNA.[28] In this assay, we transfected mammalian COS-1 cells with protein expression vectors for GATA4 and NKX2-5 proteins together with artificial luciferase reporter vector containing three high affinity binding sites for NKX2-5 (NKE). […] All 257 compounds were tested in two concentrations, 3 and 10 μM. Compounds either inhibited, enhanced, or had no effect on the GATA4–NKX2-5 transcriptional synergy. To investigate the selectivity of the active compounds, we tested their effects on NKX2-5 transcriptional activity by using the same luciferase reporter vector as in transcriptional synergy assay with three NKE sites (Figure 3B). Furthermore, we used GATA luciferase reporter assay to examine if compounds have an effect on GATA4 transcriptional activity. In this assay, we cotransfected the cells with a GATA4 protein expression vector and a reporter vector with tandem GATA4 binding sites (Figure 3C). Previously we have reported that compound 1 inhibited the GATA4–NKX2-5 transcriptional synergy at micromolar concentrations (IC50 = 3 μM).[29]
(§2) The plasmids expressing mouse GATA4 protein, pMT2-GATA4, and empty pMT2 were gifts from D. B. Wilson (Department of Pediatrics, St. Louis Children’s Hospital, St. Louis, MO).[44] The plasmids expressing mouse NKX2-5 protein, pMT2-NKX2-5, have been described earlier.[28] The luciferase reporter plasmid used in GATA4–NKX2-5 transcriptional synergy assay and NKX transcriptional assay, pGL3-3xHA, contains three high affinity binding sites for NKX2-5.[28] The luciferase reporter plasmid used in GATA transcriptional assay, NP-112, contains tandem GATA-sites and minimal promoter of rat brain natriuretic peptide (BNP) gene.[45] The pGL3-BNP luciferase reporter containing −534/+4 bp rat BNP proximal promoter described previously was used in hypertrophy assay.[46]
(§3) The primary screening assay of compounds’ effect on GATA4–NKX2-5 transcriptional synergy and COS-1 cell culturing has been described earlier.[33] […] (Kinnunen et al., unpublished observation). Briefly, COS-1 cells were seeded at 14 000 cells/well in Isoplate-96 microplates (PerkinElmer, Turku, Finland) and grown overnight. The cells were transfected with the luciferase reporter plasmid pGL3-3xHA 100 ng/well and equal amounts of expression plasmids pMT2-GATA4 and pMT2-NKX2-5 total 50 ng/well. To verify the synergistic effect, the cells were transfected with pMT2-GATA4 or pMT2-NKX2-5 25 ng/well, and the total DNA concentration was adjusted to 50 ng/well with empty pMT2 plasmid. In NKX2-5 and GATA4 luciferase reporter assays, the cells were transfected with reporter plasmid pGL3-3xHA or NP-112 (100 ng/well) and expression plasmid pMT2-NKX2-5 or pMT2-GATA4 (25 ng/well). The ratio of DNA/transfection reagent (Fugene 6, Promega) was 1:3 in all assays. The transfections were performed in serum and antibiotics free media for 6 h. The cells were treated with compounds or vehicle (0.1% DMSO) for 24 h, and the luminescence was measured using neolite Reporter Gene Assay System (PerkinElmer, Turku, Finland) and Victor2 plate reader (PerkinElmer, Turku, Finland).
(§4) Raw luciferase data were analyzed in Excel, and clear outliers were removed from triplicates by using the Grubb’s test. Data analysis was performed using R.[49] The luciferase data were first normalized on the basis of the combined mean value of controls. For data visualization and creation of figures, the following R packages were used: ggplot2, cowplot, RColorBrewer, and pheatmap. The heatmaps of the toxicity data were produced with GraphPad Prism 7.00 (GraphPad Software, La Jolla, CA). Statistical significance of luciferase reporter assay data was evaluated by randomized block analysis of variance followed by Dunnett’s post hoc test. […]

COS-1 cells [2] = experiment: MTT assay (cell viability); conditions: for MTT.1µM / MTT.3µM / MTT.10µM / MTT.30µM: cell viability
Text: (§5) To investigate the toxicity as a potential cause of decreased or increased activity in luciferase reporter gene assays, we tested a set of 40 active compounds in the COS-1 cell line used for the luciferase assays. Concentration-dependent toxic effects were investigated using the lactate dehydrogenase (LDH) assay to detect necrosis and the 3-(4,5-dimethylthiazol-2-yl)-2,5-diphenyltetrazolium bromide (MTT) assay as a measure of cell viability. […] For the data analysis, compounds were classified as toxic (Figures 5 and 7) if they induced a >10% decrease in cell viability in the MTT assay at the concentration of 10 μM. The most toxic compounds (35a, 35d, 54, 58, and 63–65) in the MTT assay all contained a phenyl substituent in the southern part ring, while the ortho-nitrophenyl-derivative 39g and the phenyl-substituted thiophene 47t were nontoxic. Higher flexibility in the central parts of the ethers (35a, 35d) and N-acylated amines (58, 64) might contribute to their toxicity, because less rigid compounds are more likely to have affinity to various biological targets. Such interactions can cause toxicity. To confirm and validate the results from MTT assays, we tested three nontoxic (2, 47s, and 72) and three toxic (1, 35a, and 58) compounds in a cell viability assay measuring intracellular ATP content.
(§6) Figure 5 Effects of selected compounds on COS-1 cell viability. (A) Compound-induced necrosis was quantified with the LDH assay after a 24-h compound exposure. The data are presented as cytotoxicity percentage (% of maximal LDH release). (B) Cell viability was analyzed with the MTT assay after a 24-h compound exposure. (A,B) The data are means from 2–3 independent experiments with 3 replicate wells in each and are presented as % of control (vehicle-treated cells). The compounds have been grouped on the basis of the structure of the central part: a, amide; b, ether; c, N-acylated amine; d, amine; and e, imine. (C) The effects of selected compounds on cell viability as determined by ATP content after a 24-h compound exposure. The data are mean + SEM from three independent experiments and are presented as % of vehicle-treated cells.
(§7) For toxicity screening, COS-1 cells were cultured in DMEM (Sigma-Aldrich, Steinheim, Germany) supplemented with 10% fetal bovine serum, 100 U/mL penicillin, and 100 μg/mL streptomycin (all from Gibco, Thermo Scientific) at 37 °C with 5% CO2. The cells were plated on 96-well plates at 10 000 cells/well and exposed to test compounds at a concentration range of 1–30 μM on the following day. After a 24-h compound treatment, lactate dehydrogenase (LDH) and 3-(4,5-dimethylthiazol-2-yl)-2,5-diphenyltetrazolium bromide (MTT) assays were carried out as described previously.[48] Briefly, LDH activity was determined from 50 μL samples of cell culture medium, to which 50 μL of substrate solution [1.3 mM β-nicotinamide-adenine dinucleotide, 660 μM iodonitrotetrazolium, 54 mM L(+)-lactic acid, and 280 μM phenazine methosulfate in 0.2 M Tris-HCl, pH 8.2, all from Sigma-Aldrich] was added, and the plate was incubated for 30 min at room temperature. The reaction was stopped with acetic acid (final concentration 333 mM), and absorbance was measured at 490 nm. The absorbance values of the samples were normalized to maximal LDH release and spontaneous LDH release determined on the same plate. Mitochondrial metabolic activity was quantified by incubating the cells with 0.5 mg/mL MTT (from Sigma-Aldrich) for 2 h at 37 °C with 5% CO2, whereafter culture medium was removed and formazan crystals were dissolved in DMSO. The absorbance was measured at 550 nm, and absorbance at 650 nm was subtracted as background.

COS-1 cells [3] = experiment: LDH assay (necrosis)
Text: as §5, §6, §7

[4] = molecular target: T2, GATA4–NKX2-5 transcriptional synergy (Mus musculus, UniProt P42582+Q08369); experiment: GATA4–NKX2-5 transcriptional synergy luciferase reporter assay (3xNKE reporter, COS-1 cells); conditions: COS-1, luciferase reporter activity relative to control
T2 construct: expressed in transfected cells; host or cells: COS-1
T2 sequence (Q08369 whole entry): as above
T2 sequence (P42582 whole entry): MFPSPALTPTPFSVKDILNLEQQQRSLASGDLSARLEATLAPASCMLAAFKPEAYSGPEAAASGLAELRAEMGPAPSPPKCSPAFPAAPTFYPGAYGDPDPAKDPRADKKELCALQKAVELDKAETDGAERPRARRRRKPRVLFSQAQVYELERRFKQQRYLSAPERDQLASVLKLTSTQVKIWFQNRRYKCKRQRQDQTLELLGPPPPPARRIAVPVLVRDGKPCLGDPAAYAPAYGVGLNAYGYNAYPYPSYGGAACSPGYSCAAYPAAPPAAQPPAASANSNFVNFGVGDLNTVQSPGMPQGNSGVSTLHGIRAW

[5] = molecular target: T3, NKX2-5 transcriptional activity (Mus musculus, UniProt P42582); experiment: NKX2-5 luciferase reporter assay (3xNKE reporter, COS-1 cells); conditions: COS-1, luciferase reporter activity relative to control; for activity at 3 µM: read-out: NKX.3µM; for activity at 10 µM: read-out: NKX.10µM
T3 construct: expressed in transfected cells; host or cells: COS-1
T3 sequence (P42582 whole entry): as above
Experimental: as §1, §2, §3, §4

Structure (SMILES) | activity at 3 µM [1] [%] | activity at 10 µM [1] [%] | activity at 3 µM [4] [%] | activity at 10 µM [4] [%] | activity at 3 µM [5] [%] | activity at 10 µM [5] [%] | MTT.1µM (COS-1 cells [2]) | MTT.3µM (COS-1 cells [2]) | MTT.10µM (COS-1 cells [2]) | MTT.30µM (COS-1 cells [2]) | LDH.1µM (COS-1 cells [3]) | LDH.3µM (COS-1 cells [3]) | LDH.10µM (COS-1 cells [3]) | LDH.30µM (COS-1 cells [3]) | toxicity class in the MTT assay (COS-1 cells [2]; 24-h exposure, classified at 10 μM)
CCC(OC)c1ccc(OCc2c(-c3ccccc3)noc2C)cc1 (racemic) [Compound 34e, (rac)-4-[[4-(1-Methoxypropyl)phenoxy]methyl]-5-methyl-3-phenylisoxazole] | 101 |  | 79.7 |  | 104 |  | 102.33 | 95.44 | 86.07 | 79.5 | 1.31 | -0.22 | -0.78 | 0.55 | 
CC[N+](O)(CC)c1ccc(NC(=O)c2c(-c3ccccc3)noc2C)cc1 [SI4] | 87.2 | 86.9 | 101 | 93.6 | 118 | 99.9 | 104.81 | 107.68 | 104.23 | 95.62 | 3.36 | 1.95 | 1 | -1.21 | 
CC(=O)N(Cc1ccc(N(C)C)cc1)c1c(-c2ccccc2)noc1C [Compound 64] | 59.6 |  | 40.2 |  | 62.1 | 44.1 | 98.18 | 84.51 | 77.4 | 65.98 | 0.55 | -0.52 | -0.2 | -0.49 | 
CCN(c1ccc(NC(=O)c2c(-c3ccccc3)noc2C)cc1)C(C)C [Compound 4i, N-[4-[Ethyl(isopropyl)amino]phenyl]-5-methyl-3-phenylisoxazole-4-carboxamide] | 84.1 |  | 64.9 |  | 55.3 |  | 100.09 | 98.4 | 87.88 | 85.16 | 0.82 | 0.18 | -0.77 | -0.17 | 

The next lines start with results.

activity at 3 µM [1] [%] | activity at 10 µM [1] [%] | activity at 3 µM [4] [%] | activity at 10 µM [4] [%] | activity at 3 µM [5] [%] | activity at 10 µM [5] [%] | Structure (SMILES) | MTT.1µM (COS-1 cells [2]) | MTT.3µM (COS-1 cells [2]) | MTT.10µM (COS-1 cells [2]) | MTT.30µM (COS-1 cells [2]) | LDH.1µM (COS-1 cells [3]) | LDH.3µM (COS-1 cells [3]) | LDH.10µM (COS-1 cells [3]) | LDH.30µM (COS-1 cells [3]) | toxicity class in the MTT assay (COS-1 cells [2]; 24-h exposure, classified at 10 μM)
103 | 81.8 | 80.7 | 93.5 | 101 | 89 | CCN(CC)c1ccc(NC(=O)c2c[nH]nc2-c2ccccc2)cc1 [SI89] | 100.37 | 105.87 | 100.53 | 96.92 | 2.32 | 1.68 | 1.11 | -1.15 | 
74.4 |  | 61.5 |  | 55.2 |  | CCN(CC)c1ccc(NC(=O)c2csc(C)c2-c2ccccc2)cc1 [Compound 47t] | 106.87 | 104.76 | 104.28 | 99.24 | 0.5 | 1.08 | 0.5 | 2.38 | nontoxic (nontoxic compounds (cell viability >90%))
72.5 |  | 75.2 | 33 | 76 | 33.6 | CCN(CC)c1ccc(NC(=O)c2c(-c3ccccc3)nnn2CCc2ccccc2)cc1 [Compound 71] | 103.27 | 98.93 | 94.48 | 80.74 | 0.03 | -0.62 | -0.76 | 1.31 | 
113 | 97.4 | 104 | 96.1 | 115 | 91.1 | CCCn1nnc(-c2ccccc2)c1C(=O)Nc1ccc(N(CC)CC)cc1 [SI65] | 101.13 | 112.84 | 109.58 | 105.89 | 2.51 | 1.17 | 1.55 | 2.48 | 
92.4 |  |  |  | 71.1 |  | CCN(CC)c1ccc(NC(=O)c2snnc2-c2ccccc2)cc1 [Compound 47n] | 104.04 | 91.5 | 90.69 | 79.72 | 1.44 | 1.32 | 0.75 | 1.71 | 
